Test results taken from patent US20090215742A1, “AMIDE […]” (PFIZER, INC., priority 2005, published 2009).

Molecular target: T1, HSP-90 (Homo sapiens, UniProt P07900)
T1 construct: fused on or other part: 6-His tag at the C-terminus
Experiment: HSP-90 SPA (scintillation proximity assay) competition binding assay, displacement of tritiated propyl-Geldanamycin
Conditions: for inhibition at 1 µM: read-out: % inhibition @ 1 μM; for inhibition at 10 µM: read-out: % inhibition @ 10 μM

With O=C(c1ccc(O)cc1O)N1CCOC(COc2cc(F)cc(F)c2)C1 (stereo not drawn) [Example 114, 4-({2-[(3,5-difluorophenoxy)methyl]morpholin-4-yl}carbonyl)benzene-1,3-diol] the inhibition at 1 µM was 60.2% and the inhibition at 10 µM was 83.2%.

For O=C(c1ccc(O)cc1O)N1CCSCC1 [Example 133, 4-(thiomorpholin-4-ylcarbonyl)benzene-1,3-diol], the inhibition at 1 µM was 42.6% and the inhibition at 10 µM was 80%.

For COc1ccc(F)c(C2=NOC3(COCCN(C(=O)c4ccc(O)cc4O)C3)C2)c1 (stereo not drawn) [Example 132, 4-{[3-(2-fluoro-5-methoxyphenyl)-1,7-dioxa-2,10-diazaspiro[4.6]undec-2-en-10-yl]carbonyl}benzene-1,3-diol], the inhibition at 1 µM was 33.3% and the inhibition at 10 µM was 73.9%.

For COc1ccc(Cc2nnc3n2CCN(C(=O)c2ccc(O)cc2O)CC3)cc1 [Example 116, 4-{[3-(4-methoxybenzyl)-5,6,8,9-tetrahydro-7H-[1,2,4]triazolo[4,3-d][1,4]diazepin-7-yl]carbonyl}benzene-1,3-diol], the inhibition at 1 µM was 5% and the inhibition at 10 µM was 62.1%.

CN(CCc1ccccc1)C(=O)c1ccc(O)cc1O [Example 108, 2,4-dihydroxy-N-methyl-N-(2-phenylethyl)benzamide] was tested, and the inhibition at 1 µM was 40.5% and the inhibition at 10 µM was 83.1%.

Cc1noc(C)c1COCC1COCCN(C(=O)c2ccc(O)cc2O)C1 (stereo not drawn) [Example 98, 4-[(6-{[(3,5-dimethylisoxazol-4-yl)methoxy]methyl}-1,4-oxazepan-4-yl)carbonyl]benzene-1,3-diol] gave an inhibition at 1 µM of 26.7% and an inhibition at 10 µM of 65.9%.

In the case of O=C(c1cc(-c2cc[nH]n2)ccc1O)N1Cc2ccccc2C1 [Example 33, 2-(1,3-dihydro-2H-isoindol-2-ylcarbonyl)-4-(1H-pyrazol-3-yl)phenol], the inhibition at 1 µM is reported as 2% and the inhibition at 10 µM is reported as 20.9%.

O=C(c1ccc(O)cc1O)N1CCC(Oc2cccc(Cl)c2)CC1 [Example 69, 4-{[4-(3-chlorophenoxy)piperidin-1-yl]carbonyl}benzene-1,3-diol] gave an inhibition at 1 µM of 33.9% and an inhibition at 10 µM of 76.6%.

Molecule Cc1ccc(C(=O)N2Cc3ccccc3C2)c(O)c1 [Example 27, 2-(1,3-dihydro-2H-isoindol-2-ylcarbonyl)-5-methylphenol] has an inhibition at 1 µM of 0.2% and an inhibition at 10 µM of 26.2%.

Work on O=C(c1ccc(O)cc1O)N1CCOCC(O)(COC2CCCC2)C1 (stereo not drawn) [Example 61, 4-({6-[(cyclopentyloxy)methyl]-6-hydroxy-1,4-oxazepan-4-yl}carbonyl)benzene 1,3-diol] yielded an inhibition at 1 µM of 37.7% and an inhibition at 10 µM of 75.6%.

Cc1nccc(-c2ccc(O)c(C(=O)N3Cc4ccccc4C3)c2)n1 [Example 35, 2-(1,3-dihydro-2H-isoindol-2-ylcarbonyl)-4-(2-methylpyrimidin-4-yl)phenol] was tested, and the inhibition at 1 µM was 6.1% and the inhibition at 10 µM was 32.8%.

Work on O=C(c1cc(-c2ccncn2)ccc1O)N1Cc2ccccc2C1 [Example 32, 2-(1,3-dihydro-2H-isoindol-2-ylcarbonyl)-4-pyrimidin-4-ylphenyl] yielded an inhibition at 1 µM of -11.9% and an inhibition at 10 µM of 14.2%.

O=C(c1cc2ccccc2cc1O)N1Cc2ccccc2C1 [Example 24, 3-(1,3-dihydro-2H-isoindol-2-ylcarbonyl)-2-naphthol] showed an inhibition at 1 µM of 5.4% and an inhibition at 10 µM of 34.9%.

O=C(c1ccc(O)cc1O)N1CCOCC2(CC(c3ccccc3)=NO2)C1 (stereo not drawn) [Example 130] gave an inhibition at 1 µM of 46.2% and an inhibition at 10 µM of 82.4%.

With CC1CCN(C(=O)c2ccc(O)cc2O)CC1 [Example 42, 4-[(4-methylpiperidin-1-yl)carbonyl]benzene-1,3-diol] the inhibition at 1 µM was 59.9% and the inhibition at 10 µM was 86.5%.

In the case of O=C(c1ccc(O)cc1O)N1CCC(O)(c2ccccc2)CC1 [Example 77, 4-[(4-hydroxy-4-phenylpiperidin-1-yl)carbonyl]benzene-1,3-diol], the inhibition at 1 µM is reported as 44.6% and the inhibition at 10 µM is reported as 79.6%.

CN(Cc1nnc(-c2cccc(C#N)c2)o1)C(=O)c1ccc(O)cc1O [Example 121, N-{[5-(3-cyanophenyl)-1,3,4-oxadiazol-2-yl]methyl}-2,4-dihydroxy-N-methylbenzamide] was tested, and the inhibition at 1 µM was 10.6% and the inhibition at 10 µM was 64.6%.

O=C(c1ccc(O)cc1O)N1CCC(Oc2ccccc2)CC1 [Example 71, 4-[(4-phenoxypiperidin-1-yl)carbonyl]benzene-1,3-diol] gave an inhibition at 1 µM of 37.3% and an inhibition at 10 µM of 79.3%.

Work on C[C@@H](c1ccccc1)N(C)C(=O)c1ccc(O)cc1O [Example 66, 2,4-dihydroxy-N-methyl-N-(1-phenylethyl)benzamide] yielded an inhibition at 1 µM of 55.5% and an inhibition at 10 µM of 84.8%.

O=C(c1ccc(F)cc1O)N1Cc2ccccc2C1 [Example 29, 2-(1,3-dihydro-2H-isoindol-2-ylcarbonyl)-5-fluorophenyl] showed an inhibition at 1 µM of 0% and an inhibition at 10 µM of 26.6%.

In the case of COc1ccc2cc(O)c(C(=O)N3Cc4ccccc4C3)cc2c1 [Example 25, 3-(1,3-dihydro-2H-isoindol-2-ylcarbonyl)-6-methoxy-2-naphthol], the inhibition at 1 µM is reported as 9.9% and the inhibition at 10 µM is reported as 13.7%.

Molecule O=C(c1ccc(O)cc1O)N1CCC(CCc2cncnc2)CC1 [Example 50, 4-{[4-(2-pyrimidin-5-ylethyl)piperidin-1-yl]carbonyl}benzene-1,3-diol] has an inhibition at 1 µM of 34.6% and an inhibition at 10 µM of 77.7%.

C[C@H]([C@@H](O)c1ccccc1)N(C)C(=O)c1ccc(O)cc1O [Example 53, 2,4-dihydroxy-N-(2-hydroxy-1-methyl-2-phenylethyl)-N-methylbenzamide] showed an inhibition at 1 µM of -7.8% and an inhibition at 10 µM of 7.3%.

Work on O=C(c1ccc(O)cc1O)N1CCCC(COc2cccc(Cl)c2)C1 (stereo not drawn) [Example 59, 4-({3-[(3-chlorophenoxy)methyl]piperidin-1-yl}carbonyl)benzene-1,3-diol] yielded an inhibition at 1 µM of 58.6% and an inhibition at 10 µM of 82.9%.

Molecule O=C(c1cc(Cl)cc(Cl)c1O)N1Cc2ccccc2C1 [Example 208, 2,4-dichloro-6-(1,3-dihydro-2H-isoindol-2-ylcarbonyl)phenol] has an inhibition at 10 µM of 0%.

O=C(c1ccc(O)cc1O)N1CCCCC1c1cccc(F)c1 (stereo not drawn) [Example 57, 4-{[2-(3-fluorophenyl)piperidin-1-yl]carbonyl}benzene-1,3-diol] was tested, and the inhibition at 1 µM was 73.7% and the inhibition at 10 µM was 88.2%.
